Series [1] in a line: Plasma protein binding assay (PPB), equilibrium dialysis, 10% FCS in PBS. The settings on record: bovine, read-out: PPB 10% FCS (% fu). The class given is in vitro ADME. As for the experimental part:
Binding of test compounds to plasma was determined using equilibrium dialysis (ED) and quantitative mass spectrometry interfaced with liquid chromatography (LC-MS). In brief, ED was performed with dialysis devices consisting of two chambers separated by a semipermeable membrane with a molecular weight cut-off of 5-10 kg/mol. One chamber was filled with 10% FCS in PBS containing 1-10 μmol/L test compound and the other chamber was filled with phosphate-buffer saline (PBS) with or without dextran. The dialysis chamber was incubated for 3-5 hours at 37° C. After incubation, protein was precipitated from aliquots of each chamber and the concentration of test compound in the supernatant of the plasma-containing compartment (Cserum) and of the buffer-containing compartment (Cbuffer) was determined by LC-MS. The fraction of unbound test compound (not bound to plasma) (fu) was calculated according to the following equation: […]
(In equilibrium dialysis free small molecules cross a membrane that holds back macromolecules.)

Series [2] relates to LOVO cells. In words: LOVO CTG proliferation assay (120 h) (CRC, G13D). The class given is cell-based. The settings on record: Homo sapiens, CTG 120 h. The method, then: LOVO CTG Proliferation Assay (120 h) (CRC, G13D)
LOVO cells (ATCC CCL-229) are dispensed into 384-well plates, flat and clear bottom (Greiner, PNr. 781091) at a density of 1000 cells per well in 60 μL DMEM (Sigma D6429)+10% Fetal Calf Serum (HyClone, PNr.: SH30084.03) and incubated at 37° C. in a CO2 incubator overnight. The next day, compounds (10 mM stock in DMSO) are added with the ECHO acoustic liquid handler system (Beckman Coulter), including DMSO controls. Plates are incubated for 120 h, and cell viability is measured using CellTiter-Glo luminescent cell viability reagent (Promega product code G7570). Viability (stated as percent of control) is defined as relative luminescence units RLU of each well divided by the RLU of cells in DMSO controls. IC50 values are determined from viability measurements by non-linear regression using a four-parameter model.

The target of series [3] is KRAS (G12D)::SOS1 (Homo sapiens (Human), UniProt P01116, G12D). Kind of series: KRAS::SOS1 AlphaScreen binding assay, KRAS G12D. An excerpt: This assay can be used to examine the potency with which compounds according to the invention binding to (mutated) KRAS inhibit the protein-protein interaction between SOS1 and (mutated) KRAS e.g., KRAS WT, KRAS G12C, KRAS G12D, KRAS G12V, KRAS G13D. […] Low IC50 values in this assay setting are indicative of strong inhibition of protein-protein interaction between SOS1 and KRAS:
These assays measure the inhibitory effect of compounds on KRAS mutant protein-protein interactions using the Alpha Screen technology by Perkin Elmer.
The following (mutant) enzyme forms of KRAS and interacting proteins are used in these assays at the given concentrations: • KRAS (G12D) 1-169, N-terminal 6His-tag, C-terminal avi-tag (Xtal BioStructures, Inc.); final assay concentration 10 nM and SOS1 564-1049, N-terminal 229 GST-tag, TEV cleavage site (Viva Biotech Ltd); final assay concentration 5 nM; • KRAS (G12C) 1-169, N-terminal 6His-tag for purification, cleaved off, C-terminal avi-tag, biotinylated, mutations: C51S, C80L, C118S (in house); final assay concentration 7.5 nM and SOS1 564-1049, N-terminal 229 GST-tag, TEV cleavage site (Viva Biotech Ltd); final assay concentration 5 nM; • KRAS (G12V) 1-169, N-terminal 6His-tag for purification, cleaved off, C-terminal avi-tag, biotinylated, TEV cleavage site, mutation: C118S, GDP loaded (in house); final assay concentration 10 nM and SOS1 564-1049, N-terminal 229 GST-tag, TEV cleavage site (Viva Biotech Ltd); final assay concentration 10 nM; • KRAS (G13D) 1-169, N-terminal 6His-tag for purification, cleaved off, C-terminal avi-tag, biotinylated, TEV cleavage site, mutation: C118S, GDP loaded (in house); final assay concentration 10 nM and SOS1 564-1049, N-terminal 229 GST-tag, TEV cleavage site (Viva Biotech Ltd); final assay concentration 10 nM; • KRAS (WT) 1-169, N-terminal 6His-tag for purification, cleaved off, C-terminal avi-tag, biotinylated, TEV cleavage site, mutation: C118S, GDP loaded (in house); final assay concentration 10 nM and SOS1 564-1049, N-terminal 229 GST-tag, TEV cleavage site (Viva Biotech Ltd); final assay concentration 10 nM.
Test compounds dissolved in DMSO are dispensed onto assay plates (Proxiplate 384 PLUS, white, PerkinElmer; 6008289) using an Access Labcyte Workstation with the Labcyte Echo 55×. For the chosen highest assay concentration of 100 μM, 150 nL of compound solution are transferred from a 10 mM DMSO compound stock solution. A series of eleven fivefold dilutions per compound are transferred to the assay plate, compound dilutions are tested in duplicates. DMSO are added as backfill to a total volume of 150 nL.
The assays run on a fully automated robotic system in a darkened room below 100 Lux. To 150 nl of compound dilution 10 μl of a mix including KRAS mutant protein, SOS1 (final assay concentrations see above) and GDP nucleotide (Sigma G7127; final assay concentration 10 μM) in assay buffer (1×PBS, 0.1% BSA, 0.05% Tween 20) are added into columns 1-24.
After 30 minutes incubation time 5 μl of Alpha Screen bead mix in assay buffer are added into columns 1-23. Bead mix consists of AlphaLISA Glutathione Acceptor Beads (PerkinElmer, Cat No AL109) and AlphaScreen Streptavidin Donor Beads (PerkinElmer Cat No 6760002) in assay buffer at a final assay concentration of 10 μg/ml each.
Plates are kept at room temperature in a darkened incubator. After an additional 60 minutes incubation time the signal is measured in a PerkinElmer Envision HTS Multilabel Reader using the AlphaScreen specs from PerkinElmer.
Each plate contains up to 16 wells of a negative control depending on the dilution procedure (platewise or serial) (DMSO instead of test compound; with KRAS mutant::SOS1 GDP mix and bead mix; column 23) and 16 wells of a positive control (DMSO instead of test compound; with KRAS mutant::SOS1 GDP mix w/o bead mix; column 24).
As internal control known inhibitors of KRAS mutant::SOS1 interaction can be measured on each compound plate. […]

Molecules are shown by their SMILES. pIC50: −log10 of the molar value.

Sequence of KRAS (G12D)::SOS1 (P01116 other isoform, or with tags, fused parts or gaps G12D): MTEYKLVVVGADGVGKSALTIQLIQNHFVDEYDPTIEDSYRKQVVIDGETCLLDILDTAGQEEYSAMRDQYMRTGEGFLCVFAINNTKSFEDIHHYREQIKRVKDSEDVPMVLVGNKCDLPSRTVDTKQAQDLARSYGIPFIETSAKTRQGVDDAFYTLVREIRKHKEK

On to `C[C@H](Oc1cc(-n2cc3c(n2)CCNC3)nc(-c2noc3c2CCC[C@@]32CCCc3sc(N)c(C#N)c32)n1)[C@@H]1CCCN1C` [II-53], for which the fraction unbound in series [1] was 0.29. For the same molecule, the pIC50 (commonly the IC50 on a negative log10 scale, so that one unit is a factor of ten) was 6.31 in series [2] and 9.00 in series [3].
Consider `C[C@H](Oc1cc(N2CCCC3(COC3)C2)nc(-c2noc3c2CCC[C@@]32CCCc3sc(N)c(C#N)c32)n1)[C@@H]1CCCN1C` [II-72], for which the fraction unbound in series [1] is 0.1. Besides, the pIC50 in series [2] was 7.26; in series [3], 8.70.
Take `C[C@H](Oc1cc(N2Cc3cnn(C)c3C2)nc(-c2noc3c2CCC[C@@]32CCCc3sc(N)c(C#N)c32)n1)[C@@H]1CCCN1C` [II-63]: in series [1], the fraction unbound was found to be 0.06. Besides, the negative-log IC50 (pIC50) in series [2] was 6.19; in series [3], 7.92.
Take `CO[C@@H]1C[C@@H]([C@H](C)Oc2cc(-c3cnn(C)n3)nc(-c3noc4c3CCC[C@@]43CCCc4sc(N)c(C#N)c43)n2)N(C)C1` [II-62]: the fraction unbound in series [1] is 0.18. The pIC50 in series [2] was 5.63; in series [3] it was 8.15.
Take `C[C@H](Oc1cc(N2C[C@H](C)N[C@@H](C)C2)nc(-c2onc3c2CCC[C@@]32CCCc3sc(N)c(C#N)c32)n1)[C@@H]1CCCN1C` [I-6]: in series [1], the fraction unbound amounted to 0.94. For the same molecule, the figures for the pIC50 in series [2] and in series [3] were 5.91 and 9.00, respectively.
Take `C[C@H](Oc1cc(-c2cncnc2)nc(-c2noc3c2CCC[C@@]32CCCc3sc(N)c(C#N)c32)n1)[C@@H]1CCCN1C` [II-82]: in series [1], the fraction unbound is 0.66. Further, the pIC50 is 6.14 in series [2] and 8.22 in series [3].
As for `C[C@H](Oc1cc(-n2cncc3ccnc2-3)nc(-c2noc3c2CCC[C@@]32CCCc3sc(N)c(C#N)c32)n1)[C@@H]1CCCN1C` [II-105], the fraction unbound in series [1] was 0.07. The results for the negative logarithm of the IC50 (pIC50) in series [2] and in series [3] were 6.82 and 8.70, respectively.
As for `C[C@H](Oc1cc(N2CCNC3(CC3)C2)nc(-c2noc3c2CCC[C@@]32CCCc3sc(N)c(C#N)c32)n1)[C@@H]1CCCN1C` [II-54], the fraction unbound in series [1] stood at 0.3. Moreover, the pIC50 in series [2] is 6.27; in series [3], 9.00.
As for `C[C@H](Oc1cc(N2CC[C@@H](O)C2)nc(-c2noc3c2CCC[C@@]32CCCc3sc(N)c(C#N)c32)n1)[C@@H]1CCCN1C` [II-66], the fraction unbound in series [1] came to 0.41. The pIC50 in series [2] is 5.43; in series [3] it was 9.00.
In the case of `C[C@H](Oc1cc(N2CCN(C)C2=O)nc(-c2noc3c2CCC[C@@]32CCCc3sc(N)c(C#N)c32)n1)[C@@H]1CCCN1C` [II-75], the fraction unbound in series [1] was 0.16. Also, the figures for the negative logarithm of the IC50 (pIC50) in series [2] and in series [3] were 6.55 and 9.00, respectively.
Take `C[C@H](Oc1cc(N2CCNC[C@]23CCOC3)nc(-c2noc3c2CCC[C@@]32CCCc3sc(N)c(C#N)c32)n1)[C@@H]1CCCN1C` [II-50]: in series [1], the fraction unbound stood at 0.38. The negative logarithm of the IC50 (pIC50) in series [2] was 5.79; in series [3] it was 9.00.
With `C[C@H](Oc1cc(-n2cnc3cccnc32)nc(-c2noc3c2CCC[C@@]32CCCc3sc(N)c(C#N)c32)n1)[C@@H]1CCCN1C` [II-65], the fraction unbound in series [1] turned out to be 0.03. Further, the figures for the negative-log IC50 (pIC50) in series [2] and in series [3] were 6.54 and 8.05, respectively.
Regarding `C[C@H](Oc1cc(N2CCN(C)CC2)nc(-c2noc3c2CCC[C@@]32CCCc3sc(N)c(C#N)c32)n1)[C@@H]1CCCN1C` [II-55], the fraction unbound in series [1] came out at 0.26. Moreover, the pIC50 was 5.96 in series [2] and 9.00 in series [3].
As for `C[C@H](Oc1cc(-n2ccncc2=O)nc(-c2noc3c2CCC[C@@]32CCCc3sc(N)c(C#N)c32)n1)[C@@H]1CCCN1C` [II-116], the fraction unbound in series [1] was 0.35. The pIC50 in series [2] is 8.10; in series [3] it was 8.70.
For `C[C@H](Oc1cc(-c2ccncc2)nc(-c2noc3c2CCC[C@@]32CCCc3sc(N)c(C#N)c32)n1)[C@@H]1CCCN1C` [II-78], in that order: 0.49, 6.76 and 8.40.
For `CO[C@@H]1C[C@@H]([C@H](C)Oc2cc(-c3ccn(C)n3)nc(-c3noc4c3CCC[C@@]43CCCc4sc(N)c(C#N)c43)n2)N(C)C1` [II-91], the fraction unbound in series [1] was 0.08. The pIC50 in series [2] was 6.87; in series [3] it was 8.40.
Take `C[C@H](Oc1cc(-n2ccnc2Cl)nc(-c2noc3c2CCC[C@@]32CCCc3sc(N)c(C#N)c32)n1)[C@@H]1CCCN1C` [II-93]: the fraction unbound in series [1] worked out at 0.05. For the same molecule, the figures for the negative logarithm of the IC50 (pIC50) in series [2] and in series [3] were 6.87 and 8.52, respectively.
In the case of `Cc1nccn1-c1cc(O[C@@H](C)[C@@H]2CCCN2C)nc(-c2noc3c2CCC[C@@]32CCCc3sc(N)c(C#N)c32)n1` [II-79], the fraction unbound in series [1] is 0.15. The pIC50 in series [2] is 6.97; in series [3], 8.70.
Consider `C[C@H](Oc1cc(-c2cnn(C)c2)nc(-c2noc3c2CCC[C@@]32CCCc3sc(N)c(C#N)c32)n1)[C@@H]1CCCN1C` [II-74], for which the fraction unbound in series [1] stood at 0.48. The pIC50 in series [2] was 6.50; in series [3], 8.22.
For `C[C@H](Oc1cc(-c2ccccn2)nc(-c2noc3c2CCC[C@@]32CCCc3sc(N)c(C#N)c32)n1)[C@@H]1CCCN1C` [II-85], the fraction unbound in series [1] turned out to be 0.08. For the same molecule, the figures for the pIC50 in series [2] and in series [3] were 6.68 and 8.70, respectively.
For `C[C@H](Oc1cc(C2=CCOCC2)nc(-c2noc3c2CCC[C@@]32CCCc3sc(N)c(C#N)c32)n1)[C@@H]1CCCN1C` [II-67], in that order: 0.23, 7.31 and 8.52.
As to `C[C@H](Oc1cc(-c2cncs2)nc(-c2noc3c2CCC[C@@]32CCCc3sc(N)c(C#N)c32)n1)[C@@H]1CCCN1C` [II-80], the fraction unbound in series [1] was 0.23. Also, the pIC50 was 6.25 in series [2] and 8.15 in series [3].
The matching figures for `Cc1cn(-c2cc(O[C@@H](C)[C@@H]3CCCN3C)nc(-c3noc4c3CCC[C@@]43CCCc4sc(N)c(C#N)c43)n2)nn1` [II-106]: 0.2, 6.00 and 8.05.

The values above are taken from patent publication US20240174690A1, “ANNULATED 2-AMINO-3-CYANO THIOPHENES AND DERIVATIVES FOR THE TREATMENT OF CANCER” (BOEHRINGER INGELHEIM INTERNATIONAL GMBH, priority 2021, published 2024).
